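Each compound was tested at five concentrations against cells in 96-well plates for 48 hours. GI50 is the concentration that inhibits growth by half. TGI: concentration producing complete growth inhibition.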
system: HCT-15 colon; assay: inhibition of tumour cell growth, NCI panel, 48 h

SMILES	GI50 [µM]	TGI [µM]
O=C1CSC(N2CCN(c3cccc(Cl)c3)CC2)=N1	> 100	> 100
CC(=O)/C=C/c1cccc(N=S)c1		31.9
C1CN2N3CCCC23C1 (stereo not given)		> 100
O=C(Nc1ccccc1[N+](=O)[O-])c1ccccc1		> 100
C[Si](C)(C)c1ccc(CC2(Cc3ccc([Si](C)(C)C)cc3)CCNC2)cc1		4.86
Cc1c(N2C(=O)/C(=C\c3ccccc3O)N=C2c2ccccc2)c(=O)n(-c2ccccc2)n1C	> 100	> 100
CN(C)S(=O)(=O)Nc1ccccn1		> 100
COc1cc2c(c(OC)c1OC)-c1ccc(NCc3ccccc3)c(=O)cc1[C@@H](NC(C)=O)CC2	1.09	> 48.4

system: SW-620 colon; assay: inhibition of tumour cell growth, NCI panel, 48 h

SMILES	GI50 [µM]	TGI [µM]
O=C1CSC(N2CCN(c3cccc(Cl)c3)CC2)=N1	> 100	> 100
CC(=O)/C=C/c1cccc(N=S)c1		6.68
C1CN2N3CCCC23C1 (stereo not given)		> 100
O=C(Nc1ccccc1[N+](=O)[O-])c1ccccc1		> 100
C[Si](C)(C)c1ccc(CC2(Cc3ccc([Si](C)(C)C)cc3)CCNC2)cc1		3.38
Cc1c(N2C(=O)/C(=C\c3ccccc3O)N=C2c2ccccc2)c(=O)n(-c2ccccc2)n1C	> 100	> 100
CN(C)S(=O)(=O)Nc1ccccn1		> 100
COc1cc2c(c(OC)c1OC)-c1ccc(NCc3ccccc3)c(=O)cc1[C@@H](NC(C)=O)CC2	0.391	> 100

system: UACC-257 melanoma; assay: inhibition of tumour cell growth, NCI panel, 48 h

SMILES	GI50 [µM]	TGI [µM]
O=C1CSC(N2CCN(c3cccc(Cl)c3)CC2)=N1	> 100	> 100
CC(=O)/C=C/c1cccc(N=S)c1		> 67.4
C1CN2N3CCCC23C1 (stereo not given)		> 100
O=C(Nc1ccccc1[N+](=O)[O-])c1ccccc1		> 100
C[Si](C)(C)c1ccc(CC2(Cc3ccc([Si](C)(C)C)cc3)CCNC2)cc1		5.41
Cc1c(N2C(=O)/C(=C\c3ccccc3O)N=C2c2ccccc2)c(=O)n(-c2ccccc2)n1C	> 100	> 100
CN(C)S(=O)(=O)Nc1ccccn1		> 100
COc1cc2c(c(OC)c1OC)-c1ccc(NCc3ccccc3)c(=O)cc1[C@@H](NC(C)=O)CC2	0.671	37.5

system: NCI-H23 lung; assay: inhibition of tumour cell growth, NCI panel, 48 h

SMILES	GI50 [µM]	TGI [µM]
O=C1CSC(N2CCN(c3cccc(Cl)c3)CC2)=N1	> 100	> 100
CC(=O)/C=C/c1cccc(N=S)c1		> 92.7
C1CN2N3CCCC23C1 (stereo not given)		> 100
O=C(Nc1ccccc1[N+](=O)[O-])c1ccccc1		> 100
C[Si](C)(C)c1ccc(CC2(Cc3ccc([Si](C)(C)C)cc3)CCNC2)cc1		3.47
Cc1c(N2C(=O)/C(=C\c3ccccc3O)N=C2c2ccccc2)c(=O)n(-c2ccccc2)n1C	> 100	> 100
CN(C)S(=O)(=O)Nc1ccccn1		> 100
COc1cc2c(c(OC)c1OC)-c1ccc(NCc3ccccc3)c(=O)cc1[C@@H](NC(C)=O)CC2	0.628	54.9

system: NCI-H460 lung; assay: inhibition of tumour cell growth, NCI panel, 48 h

SMILES	GI50 [µM]	TGI [µM]
O=C1CSC(N2CCN(c3cccc(Cl)c3)CC2)=N1	> 100	> 100
CC(=O)/C=C/c1cccc(N=S)c1		> 53.8
C1CN2N3CCCC23C1 (stereo not given)		> 100
O=C(Nc1ccccc1[N+](=O)[O-])c1ccccc1		> 100
C[Si](C)(C)c1ccc(CC2(Cc3ccc([Si](C)(C)C)cc3)CCNC2)cc1		3.73
Cc1c(N2C(=O)/C(=C\c3ccccc3O)N=C2c2ccccc2)c(=O)n(-c2ccccc2)n1C	> 100	> 100
CN(C)S(=O)(=O)Nc1ccccn1		> 100
COc1cc2c(c(OC)c1OC)-c1ccc(NCc3ccccc3)c(=O)cc1[C@@H](NC(C)=O)CC2	0.369	18

system: SF-268 CNS; assay: inhibition of tumour cell growth, NCI panel, 48 h

SMILES	GI50 [µM]	TGI [µM]
O=C1CSC(N2CCN(c3cccc(Cl)c3)CC2)=N1	> 100	> 100
CC(=O)/C=C/c1cccc(N=S)c1		> 69.6
C1CN2N3CCCC23C1 (stereo not given)		> 100
O=C(Nc1ccccc1[N+](=O)[O-])c1ccccc1		> 100
C[Si](C)(C)c1ccc(CC2(Cc3ccc([Si](C)(C)C)cc3)CCNC2)cc1		4.71
Cc1c(N2C(=O)/C(=C\c3ccccc3O)N=C2c2ccccc2)c(=O)n(-c2ccccc2)n1C	29.8	> 100
CN(C)S(=O)(=O)Nc1ccccn1		> 100
COc1cc2c(c(OC)c1OC)-c1ccc(NCc3ccccc3)c(=O)cc1[C@@H](NC(C)=O)CC2	0.788	> 73.5

system: SK-MEL-5 melanoma; assay: inhibition of tumour cell growth, NCI panel, 48 h

SMILES	GI50 [µM]	TGI [µM]
O=C1CSC(N2CCN(c3cccc(Cl)c3)CC2)=N1	> 100	> 100
CC(=O)/C=C/c1cccc(N=S)c1		63.4
C1CN2N3CCCC23C1 (stereo not given)		> 100
O=C(Nc1ccccc1[N+](=O)[O-])c1ccccc1		> 100
C[Si](C)(C)c1ccc(CC2(Cc3ccc([Si](C)(C)C)cc3)CCNC2)cc1		3.35
Cc1c(N2C(=O)/C(=C\c3ccccc3O)N=C2c2ccccc2)c(=O)n(-c2ccccc2)n1C	62.3	> 100
CN(C)S(=O)(=O)Nc1ccccn1		> 100
COc1cc2c(c(OC)c1OC)-c1ccc(NCc3ccccc3)c(=O)cc1[C@@H](NC(C)=O)CC2	0.422	1.94

system: NCI-H226 lung; assay: inhibition of tumour cell growth, NCI panel, 48 h

SMILES	GI50 [µM]	TGI [µM]
O=C1CSC(N2CCN(c3cccc(Cl)c3)CC2)=N1	> 100	> 100
CC(=O)/C=C/c1cccc(N=S)c1		> 83.3
C1CN2N3CCCC23C1 (stereo not given)		> 100
O=C(Nc1ccccc1[N+](=O)[O-])c1ccccc1		> 100
C[Si](C)(C)c1ccc(CC2(Cc3ccc([Si](C)(C)C)cc3)CCNC2)cc1		3.34
Cc1c(N2C(=O)/C(=C\c3ccccc3O)N=C2c2ccccc2)c(=O)n(-c2ccccc2)n1C	63.7	> 100
CN(C)S(=O)(=O)Nc1ccccn1		> 100
COc1cc2c(c(OC)c1OC)-c1ccc(NCc3ccccc3)c(=O)cc1[C@@H](NC(C)=O)CC2	1.01	17.1

system: OVCAR-4 ovarian; assay: inhibition of tumour cell growth, NCI panel, 48 h

SMILES	GI50 [µM]	TGI [µM]
O=C1CSC(N2CCN(c3cccc(Cl)c3)CC2)=N1	> 100	> 100
CC(=O)/C=C/c1cccc(N=S)c1		> 100
C1CN2N3CCCC23C1 (stereo not given)		> 100
O=C(Nc1ccccc1[N+](=O)[O-])c1ccccc1		> 100
C[Si](C)(C)c1ccc(CC2(Cc3ccc([Si](C)(C)C)cc3)CCNC2)cc1		4.52
Cc1c(N2C(=O)/C(=C\c3ccccc3O)N=C2c2ccccc2)c(=O)n(-c2ccccc2)n1C	> 100	> 100
CN(C)S(=O)(=O)Nc1ccccn1		> 100
COc1cc2c(c(OC)c1OC)-c1ccc(NCc3ccccc3)c(=O)cc1[C@@H](NC(C)=O)CC2	0.989	45.9

system: SK-MEL-28 melanoma; assay: inhibition of tumour cell growth, NCI panel, 48 h

SMILES	GI50 [µM]	TGI [µM]
O=C1CSC(N2CCN(c3cccc(Cl)c3)CC2)=N1	> 100	> 100
CC(=O)/C=C/c1cccc(N=S)c1		44.6
C1CN2N3CCCC23C1 (stereo not given)		> 100
O=C(Nc1ccccc1[N+](=O)[O-])c1ccccc1		> 100
C[Si](C)(C)c1ccc(CC2(Cc3ccc([Si](C)(C)C)cc3)CCNC2)cc1		5.05
Cc1c(N2C(=O)/C(=C\c3ccccc3O)N=C2c2ccccc2)c(=O)n(-c2ccccc2)n1C	> 100	> 100
CN(C)S(=O)(=O)Nc1ccccn1		> 100
COc1cc2c(c(OC)c1OC)-c1ccc(NCc3ccccc3)c(=O)cc1[C@@H](NC(C)=O)CC2	0.499	31.5
